From patent publication US9925235B2, “Tilapia piscidins for use in enhancement of wound healing” (Academia Sinica, priority 2015, dated 2018)

Key:
[1] = tested on: MRSA; assay: Mouse model of MRSA sepsis, TP4; format: in vivo, Balb/c mice
Procedure: Female Balb/c mice (6-8 weeks old) were injected intraperitoneally with 10^6 CFU MRSA per mouse. Ten minutes after MRSA injection, mice were injected intraperitoneally with vancomycin (0.01 mg/g mouse body weight), methicillin (0.01 mg/g mouse body weight), or TP4 (0.005 mg/g mouse body weight). In a second set of experiments, mice were given intraperitoneal injections of TP4 (0.005 mg/g mouse body weight) at 10, 60, 120, or 180 min after MRSA injection. Survival rate and status were recorded every 24 h for up to 192 h. To examine bacterial dissemination, mice were sacrificed at 48 h after injection with antibiotics or TP4, and the bacterial numbers in blood, peritoneum, spleen, liver, and mesenteric lymph nodes were recorded. Colony counts from the diluted bacterial solutions were expressed relative to those at the start of treatment. These experiments consisted of four groups, and each group contained 10 mice.
Infected mice were untreated, or treated with TP4, methicillin, or vancomycin via i.p. injection. Bacterial numbers in blood, peritoneum, spleen, liver, and mesenteric lymph nodes were subsequently recorded. Colony counts from the diluted bacterial solutions are expressed relative to those at the start of treatment. Each value represents the mean value from three determinations±standard deviation (SD).

[2] = tested on: Collagen I, collagen III, KGF gene expression in Hs-68 cells; assay: Real-time PCR of collagen I, collagen III, KGF in Hs-68 cells; format: cell-based, human; conditions: TP4 6.25 μg/ml, 48 h, vs controls
Procedure: In FIG. 5A-5C, Hs-68 cells were treated with different doses of TP4 for 48 h, and cell viability was measured by neutral red, LDH, and MTT assays. (r=3; n=6.) In FIG. 5D-5F, the experimental Hs-68 cells were treated with TP4 ([…]), while control cells were untreated. After 48 h, total RNA was isolated and reverse transcribed for use in real-time qPCR analysis. Six replicate wells were analyzed per assay. Results represent the mean±SEM from three independent experiments. (Student's t-test: *, P<0.05; **, P<0.01; n.s.: not significant).
Total RNA was isolated from HaCaT and Hs-68 cells, and purified using a Qiagen RNeasy kit. Reverse transcription into cDNA was performed with an iScript cDNA Synthesis Kit (BIO-RAD, USA) according to the manufacturer's recommendations. Real-time polymerase chain reaction (PCR) was performed to analyze gene expression, using […] of cDNA, 2× iQSYBR® Green Supermix (BIO-RAD, USA), and 500 nM of forward and reverse primers against selected genes or GAPDH (reference gene), according to the instructions of the manufacturer. Quantitative PCR was performed under the following conditions: 40 cycles of 1 min at 95° C., 30 s at 55° C., and 1 min at 72° C. The threshold cycle number (Ct) was calculated with BIO-RAD software. Relative transcript quantities were calculated using the ΔCt method with GAPDH as the internal reference gene. ΔCt is the difference in the threshold cycles of messenger (m)RNA for selected genes relative to those of GAPDH mRNA. Real-time PCR was performed in triplicate for each experimental group.

[3] = tested on: MRSA; assay: Mouse wound healing model, wound closure, TP4; format: in vivo, Balb/c mice; conditions: MRSA-contaminated full-thickness wounds
Procedure: Female Balb/c mice (6-8 weeks old) were used for wound healing experiments. All mice were housed individually to prevent fighting and further damage to the wounds, and they were provided with food and water ad libitum. Mice were maintained on a 12 h light: dark cycle at room temperature, and acclimatized to the environment for at least a week before use in experiments. All researchers wore caps, sterile gloves, gowns, and shoe covers when handling mice. Hair was removed from the back of the mice by shaving, and a full thickness wound (1 cm in diameter) was then created in the exposed region. Each wound was inoculated with 50 μl of broth mix containing 10^6 cfu (colony forming units) of S. aureus. At 5 min after inoculation, 50 μl TP4 (2 mg/ml) in a total volume of 0.1 ml were applied. […] Animals were subsequently euthanized by CO2 inhalation and the wounds assessed. […] Each wound was measured and then removed from the animal, with unwounded skin taken from the contralateral dorsum as a control. Each biopsy was divided into six sections, with three sections being used for tensiometry and histology, and three sections for quantitative determination of microbial load. […]
Tracings were taken immediately after injury. For uncontaminated wounds, wound size was determined every second day. […] Wound areas were determined using the Macintosh Adobe Photoshop program, Histogram Analysis. […]

[4] = 48 hours after the last treatment

Substance: Tilapia piscidin 4 (FIHHIIGGLFSAGKAIHRLIRRRRR; listed as Oreochromis niloticus) [TP4]
- Mean ± SD count, Blood [1, 4]: 0^A CFU/mL
- Mean ± SD count, Liver [1, 4]: 2.4 × 10^4 ± 1 × 10^6A CFU/mL
- Mean ± SD count, Mesenteric lymph nodes [1, 4]: 6 × 10^5 ± 1 × 10^5A CFU/mL
- Mean ± SD count, Peritoneum [1, 4]: 1 × 10^6 ± 1 × 10^4A CFU/mL
- Mean ± SD count, Spleen [1, 4]: 3 × 10^6 ± 1.2 × 10^6A CFU/mL
- survival rate ([1]; 8 days after MRSA infection, i.p. 10 min after MRSA, TP4 0.005 mg/g, vancomycin and methicillin 0.01 mg/g): 100%
- bacterial burden in organs vs untreated controls ([1]; P<0.05): significantly reduced the bacterial burden in all examined organs
- survival rate ([1]; TP4 0.005 mg/g injected 10 min after MRSA): 100%
- survival rate ([1]; TP4 0.005 mg/g injected 60 min after MRSA): 80%
- survival rate ([1]; TP4 0.005 mg/g injected 120 min after MRSA): 60%
- survival rate ([1]; TP4 0.005 mg/g injected 180 min after MRSA): 50%
- % lethality ([1]; monitored for 2 day after injection, MRSA 10^6 CFU i.p.): 0^A %
- Collagen I gene expression [2]: enhanced
- Collagen III gene expression [2]: enhanced
- KGF gene expression [2]: enhanced
- day of wound closure [3]: 21 days
- wound closure [3]: wound closure was accelerated
